{
  "source": "patent US4751227A",
  "about": "“3-cyano-5-(6-imidazo[1,2-a]pyridyl)pyridin-2-ols useful as cardiotonics” (Eisai Co., Ltd., priority 1985, dated 1988)",
  "key": {"Anesthetized Dog": {"system": "Anesthetized Dog", "test": "Effect of compounds on cardiac contractility, heart rate and blood pressure in Anesthetized Dog", "assay_type": "in vivo, mongrel dogs", "details": "intravenous", "protocol": "Effect of compounds on cardiac contractility in Anesthetized Dog\nUsing male and female mongrel dogs subjected to artificial respiration and anesthetized by inhalation of Halothane cardiotonic effect of compounds was examined. The aortic pressure and the left ventricular pressure were recorded with a catheter inserted from the femoral artery into the aorta of the chest and with a micro tip pressure transducer (Millar) inserted from the carotid into the left ventricle, respectively. The heart rate was monitored by means of a tachograph triggered by the left ventricular pressure pulse. As an index of cardiac contractility, a primary differentation (LV dp/dt max) of the left ventricular pressure pulse was recorded. The test compounds were dissolved in physiological saline or diluted hydrochloric acid or polyethylene glycol and the solutions were intravenously given through the catheter inserted into the femoral vein.\nPercent changes by the test compounds in cardiac contractility, heart rate and blood pressure obtained by the foregoing method are shown in Table 2, when compared to those prior to administration of the test compounds. In Table 2, the test compounds are those prepared in the examples later described."}, "[1]": {"system": "coronary and femoral blood flow", "test": "Effect of compounds on coronary and femoral blood flow in anesthetized dogs", "assay_type": "in vivo, mongrel dogs", "details": "intraarterial", "protocol": "Effect of compounds on coronary and femoral blood flow\nUsing male and femal mongrel dogs thoracotomized at the left 4th intercostal space under artificial respiration and inhalation anesthesia with Halothane, effect of coronary and femoral blood flow was examined by intrarterial administration. By placing an electromagnetic flowprobe around the left circumflex coronary artery and the femoral artery, the blood flows of both arteries were measured. Shallow catheters were inserted in and fixed to the arterial branch distal to the flowprobe and the test compounds were intrarterially administered through the catheters. In this case, the blood pressure, the heart rate and the cardiac contractility were also recorded simultaneously. Each test compound was used by dissolving it in physiological saline, diluted hydrochloric acid or polyethylene glycol in a dose not accompanied by any change in the blood pressure, the heart rate and the cardiac contractility."}, "[2]": {"system": "isolated Guinea Pig heart muscles", "test": "Effects of compounds on contractile response of isolated Guinea Pig heart muscles (right ventricular papillary muscles)", "details": "Cavia porcellus, read-out: Contractilities; for activation at 100 µM: Concentration 10^-4 M; for activation at 10 µM: Concentration 10^-5 M; for activation at 1 µM: Concentration 10^-6 M", "protocol": "Effects of compounds on contractile response of isolated Guinea Pig heart muscles\nMale guinea pigs weighing 300 to 500 g were stunned with a blow on the head and exsanguinated. The chest was opened rapidly, the heart was excised and papillary muscles from the right ventricle were excised.\nThe preparations were mounted in 10 ml organ bath which were filled with Krebs-Henseleit solution maintained at 36° C. and oxygenated with 95% O2 -5% CO2.\nRight ventricular papillary muscles were stimulated electrically at a rate of 1 Hz by a suprathreshold (1.2×threshold) rectangular pulse 3 ms in duration. The resting tension applied to the papillary muscles was adjusted to produce maximum developed tension. The developed tension was recorded isometrically by means of force-displacement transducer. The text compounds were dissolved in diluted hydrochloric acid and were added to the bath. Contractility after administration was compared to that prior to administration.\nThe test compounds are those prepared in the examples later described."}, "rats": {"system": "rats", "test": "Acute toxicity test by oral administration in rats", "assay_type": "in vivo", "details": "3 g/kg, 4 in each group", "protocol": "(§1) Acute toxicity was tested by oral administration in rats and mice. The results reveal that the compounds of the present invention have extremely low toxicity."}, "mice": {"system": "mice", "test": "Acute toxicity test by oral administration in mice", "assay_type": "in vivo", "details": "3 g/kg, 4 in each group", "protocol": "as §1"}, "platelets": {"system": "platelets", "test": "Effect of compounds on platelet aggregation caused by collagen", "assay_type": "cell-based, healthy volunteers", "details": "Homo sapiens, collagen 1 μg/ml, read-out: inhibition rate of platelet aggregation", "protocol": "Effect of compounds on platelet aggregation\nUsing platelets obtained from healthy volunteers, effect of compounds on platelet aggregation caused by collagen (1 μg/ml) was examined."}},
  "data": [
    {"smiles": "Cc1[nH]c(=O)c(C#N)cc1-c1ccc2nccn2c1", "note": "[Example 1, 1,2-Dihydro-5-(imidazo[1,2-a]pyridin-6-yl)-6-methyl-2-oxo-3-pyridinecarbonitrile]", "values": [
      {"measurement": "Change in Blood Pressure", "setting": "Anesthetized Dog; 10 μg/kg", "result": 0, "unit": "%"},
      {"measurement": "Change in Cardiac Contractility (LV dp/dt max)", "setting": "Anesthetized Dog; 10 μg/kg", "result": 16, "unit": "%"},
      {"measurement": "Change in Heart Rate", "setting": "Anesthetized Dog; 10 μg/kg", "result": 6, "unit": "%"},
      {"measurement": "Change in Blood Pressure", "setting": "Anesthetized Dog; 30 μg/kg", "result": -5, "unit": "%"},
      {"measurement": "Change in Cardiac Contractility (LV dp/dt max)", "setting": "Anesthetized Dog; 30 μg/kg", "result": 68, "unit": "%"},
      {"measurement": "Change in Heart Rate", "setting": "Anesthetized Dog; 30 μg/kg", "result": 15, "unit": "%"},
      {"measurement": "Change in Blood Pressure", "setting": "Anesthetized Dog; 100 μg/kg", "result": -17, "unit": "%"},
      {"measurement": "Change in Cardiac Contractility (LV dp/dt max)", "setting": "Anesthetized Dog; 100 μg/kg", "result": 97, "unit": "%"},
      {"measurement": "Change in Heart Rate", "setting": "Anesthetized Dog; 100 μg/kg", "result": 22, "unit": "%"},
      {"measurement": "Coronary Blood Flow", "setting": "[1]; dose 3 ug", "result": "25 Δ%"},
      {"measurement": "Femoral Blood Flow", "setting": "[1]; dose 3 ug", "result": "18 Δ%"},
      {"measurement": "Coronary Blood Flow", "setting": "[1]; dose 10 ug", "result": "63 Δ%"},
      {"measurement": "Femoral Blood Flow", "setting": "[1]; dose 10 ug", "result": "51 Δ%"},
      {"measurement": "Femoral Blood Flow", "setting": "[1]; dose 30 ug", "result": "76 Δ%"},
      {"measurement": "activation at 100 µM", "setting": "[2]", "result": 129, "unit": "%"},
      {"measurement": "activation at 10 µM", "setting": "[2]", "result": 88, "unit": "%"},
      {"measurement": "activation at 1 µM", "setting": "[2]", "result": 40.7, "unit": "%"},
      {"measurement": "death in acute toxicity test", "setting": "rats", "result": "no death was noted"},
      {"measurement": "death in acute toxicity test", "setting": "mice", "result": "no death was noted"},
      {"measurement": "inhibition at 1 µM", "setting": "platelets; 1×10^-6 M", "result": 41, "unit": "%"},
      {"measurement": "inhibition at 3 µM", "setting": "platelets; 3×10^-6 M", "result": 90, "unit": "%"},
      {"measurement": "inhibition at 0.3 µM", "setting": "platelets; 3×10^-7 M", "result": 14, "unit": "%"}
    ]},
    {"smiles": "CCc1[nH]c(=O)c(C#N)cc1-c1ccc2nccn2c1", "note": "[Example 6, 1,2-Dihydro-6-ethyl-5-(imidazo[1,2-a]pyridin-6-yl)-2-oxo-3-pyridinecarbonitrile]", "values": [
      {"measurement": "Change in Blood Pressure", "setting": "Anesthetized Dog; 10 μg/kg", "result": -1, "unit": "%"},
      {"measurement": "Change in Cardiac Contractility (LV dp/dt max)", "setting": "Anesthetized Dog; 10 μg/kg", "result": 14, "unit": "%"},
      {"measurement": "Change in Heart Rate", "setting": "Anesthetized Dog; 10 μg/kg", "result": 0, "unit": "%"},
      {"measurement": "Change in Blood Pressure", "setting": "Anesthetized Dog; 30 μg/kg", "result": -2, "unit": "%"},
      {"measurement": "Change in Cardiac Contractility (LV dp/dt max)", "setting": "Anesthetized Dog; 30 μg/kg", "result": 30, "unit": "%"},
      {"measurement": "Change in Heart Rate", "setting": "Anesthetized Dog; 30 μg/kg", "result": 5, "unit": "%"},
      {"measurement": "Change in Blood Pressure", "setting": "Anesthetized Dog; 100 μg/kg", "result": -7, "unit": "%"},
      {"measurement": "Change in Cardiac Contractility (LV dp/dt max)", "setting": "Anesthetized Dog; 100 μg/kg", "result": 58, "unit": "%"},
      {"measurement": "Change in Heart Rate", "setting": "Anesthetized Dog; 100 μg/kg", "result": 10, "unit": "%"}
    ]},
    {"smiles": "COc1nc(C)c(-c2ccc3nccn3c2)cc1C#N", "note": "[Example 14, 5-(Imidazo[1,2-a]pyridin-6-yl)-2-methoxy-6-methyl-3-pyridinecarbonitrile]", "values": [
      {"measurement": "Change in Blood Pressure", "setting": "Anesthetized Dog; 300 μg/kg", "result": -6, "unit": "%"},
      {"measurement": "Change in Cardiac Contractility (LV dp/dt max)", "setting": "Anesthetized Dog; 300 μg/kg", "result": 10, "unit": "%"},
      {"measurement": "Change in Heart Rate", "setting": "Anesthetized Dog; 300 μg/kg", "result": 6, "unit": "%"},
      {"measurement": "Change in Blood Pressure", "setting": "Anesthetized Dog; 1000 μg/kg", "result": -4, "unit": "%"},
      {"measurement": "Change in Cardiac Contractility (LV dp/dt max)", "setting": "Anesthetized Dog; 1000 μg/kg", "result": 41, "unit": "%"},
      {"measurement": "Change in Heart Rate", "setting": "Anesthetized Dog; 1000 μg/kg", "result": 0, "unit": "%"}
    ]},
    {"smiles": "CCc1[nH]c(=O)c(C#N)cc1-c1ccc2nc(C)cn2c1", "note": "[Example 2, 1,2-Dihydro-6-ethyl-5-(2-methylimidazo[1,2-a]pyridin-6-yl)-2-oxo-3-pyridinecarbonitrile]", "values": [
      {"measurement": "activation at 100 µM", "setting": "[2]", "result": 106, "unit": "%"},
      {"measurement": "activation at 10 µM", "setting": "[2]", "result": 73.5, "unit": "%"},
      {"measurement": "activation at 1 µM", "setting": "[2]", "result": 34.1, "unit": "%"}
    ]},
    {"smiles": "Cc1cn2cc(-c3cc(C#N)c(=O)[nH]c3C)ccc2n1", "note": "[Example 7, 1,2-Dihydro-6-methyl-5-(2-methylimidazo[1,2-a]pyridin-6-yl)-2-oxo-3-pyridinecarbonitrile]", "values": [
      {"measurement": "Change in Blood Pressure", "setting": "Anesthetized Dog; 10 μg/kg", "result": 0, "unit": "%"},
      {"measurement": "Change in Cardiac Contractility (LV dp/dt max)", "setting": "Anesthetized Dog; 10 μg/kg", "result": 21, "unit": "%"},
      {"measurement": "Change in Heart Rate", "setting": "Anesthetized Dog; 10 μg/kg", "result": 8, "unit": "%"},
      {"measurement": "Change in Blood Pressure", "setting": "Anesthetized Dog; 30 μg/kg", "result": -13, "unit": "%"},
      {"measurement": "Change in Cardiac Contractility (LV dp/dt max)", "setting": "Anesthetized Dog; 30 μg/kg", "result": 114, "unit": "%"},
      {"measurement": "Change in Heart Rate", "setting": "Anesthetized Dog; 30 μg/kg", "result": 18, "unit": "%"},
      {"measurement": "activation at 100 µM", "setting": "[2]", "result": 130, "unit": "%"},
      {"measurement": "activation at 10 µM", "setting": "[2]", "result": 95.7, "unit": "%"},
      {"measurement": "activation at 1 µM", "setting": "[2]", "result": 56.7, "unit": "%"}
    ]},
    {"smiles": "Cc1[nH]c(=O)ccc1-c1ccc2nccn2c1", "note": "[Example 10, 1,2-Dihydro-6-methyl-5-(imidazo[1,2-a]pyridin-6-yl)-2-oxo-pyridine]", "values": [
      {"measurement": "Change in Blood Pressure", "setting": "Anesthetized Dog; 10 μg/kg", "result": -2, "unit": "%"},
      {"measurement": "Change in Cardiac Contractility (LV dp/dt max)", "setting": "Anesthetized Dog; 10 μg/kg", "result": 11, "unit": "%"},
      {"measurement": "Change in Heart Rate", "setting": "Anesthetized Dog; 10 μg/kg", "result": 2, "unit": "%"},
      {"measurement": "Change in Blood Pressure", "setting": "Anesthetized Dog; 30 μg/kg", "result": -5, "unit": "%"},
      {"measurement": "Change in Cardiac Contractility (LV dp/dt max)", "setting": "Anesthetized Dog; 30 μg/kg", "result": 25, "unit": "%"},
      {"measurement": "Change in Heart Rate", "setting": "Anesthetized Dog; 30 μg/kg", "result": 4, "unit": "%"},
      {"measurement": "activation at 100 µM", "setting": "[2]", "result": 110, "unit": "%"},
      {"measurement": "activation at 10 µM", "setting": "[2]", "result": 76.3, "unit": "%"},
      {"measurement": "activation at 1 µM", "setting": "[2]", "result": 37.9, "unit": "%"}
    ]}
  ]
}
